Data reported in US11672786B2, “Methods of treating diseases associated with repeat instability” (The Hospital for Sick Children, priority 2016, dated 2023).

Legend:
[1] = system: fully-duplexed (CAG)50●(CTG)50; assay: band-shift NA-DNA binding, fully-duplexed repeat; set-up: species or system human; settings: NA 0.15-50 μM, 4% polyacrylamide gel
Excerpt: FIG. 2 are the results of experiments showing that NA binds to long CAG slip-outs. […] The (CAG)n DNA sequence (left) can fold into an hairpin structure involving mismatched A-A pair flanking C-G base pairs (middle). NA molecules can intercalate into the DNA helix, with the 2-amino-1,8-naphthyridine moiety (in red) hydrogen bonding to guanine and 8-azaquinolone moiety (in blue) hydrogen bonding to adenine. […] Long slip-outs extruded as a single slip-out from a fully base-paired backbone of (CTG)n●(CAG)n, as described (Pearson et al., 2002, Nuc. Acids Res., 30:4534-47). DNAs were mixed with increasing concentrations of NA (0.15 μM, 0.75 μM, 7.5 μM and 50 μM) and resolved on 4% polyacrylamide gels. All lanes are from the same gel, and they were separated for clarity. NA-DNA complexes are shown by brackets, free DNA is indicated by arrowheads. […] The relative migration was measured for the linear and the three slip-outs substrates as the ratio of the migration distance of each NA-DNA complex to the migration distance of the free DNA. The migration distance was measured from the well to a consistent center point of each band. […]

single CAG slip-out = assay: in vitro repair assay by HeLa cell extracts, single repeat slip-out; format: biochemical, human
Excerpt: (§1) Panel A of […] is a schematic of the in vitro repair assay. Starting DNAs and repair products released the repeat-containing fragment, which is resolved on PAGE and assessed on a molar level by Southern blotting and densitometry. Repair of different DNA substrates containing a long (CAG)20 slip-out (Panel B of FIG. 3) long (CTG)20 slip-out (Panel C of FIG. 3), a single CAG slip-out (Panel D of FIG. 3) or a single G-T mismatch (Panel E of FIG. 3), in the absence or in the presence of NA. Slipped-DNA substrates were prepared from hybrids of (CAG)50●(CTG)30, (CAG)30●(CTG)50 or of (CAG)50●(CTG)49. Repair of the G-T mismatch reconstitutes a HindIII restriction site, as shown schematically. Graphs show percentage repair efficiencies to repaired product relative to all repeat-containing fragments in the lane, values are normalized to the NA-free efficiency. […]
(§2) To determine how the binding of NA to slipped DNA structures affects repair, a series of circular slipped heteroduplex substrates was made with an excess of repeats with a nick located either 5′ or 3′ of the slip-out (FIG. 3). […] All these substrates were processed in […] by HeLa extracts and then were assessed for repair. Repair products were analyzed by Southern blotting, probed for the repeat-containing fragment, and compared with starting material, which permitted quantitative assessment of repair efficiency at a molar level. […]

long (CAG)20 slip-out = assay: in vitro repair assay by HeLa cell extracts, long (CAG)20 slip-out; format: biochemical, human
Excerpt: as §1, §2

## naphthyridine-azaquinolone
[1]
  NA binding (band-shift): did not bind
Single CAG slip-out
  effect on repair of a single repeat CAG or CTG slip-out: unaffected
Long (CAG)20 slip-out
  effect on repair of long (CAG)20 slip-outs: specifically inhibits repair
